For 50 compounds, IC50 results are on record in PubChem BioAssay AID2137 (Broad Institute, 2009).

“And” between values parts separate entries of the source, which are not always exact repeats. Identical values can stand only once. Results filed as inconclusive are left out. The source made the active and inactive calls.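 Rule for the calls: active = IC50 at most ten times the top tested dose; inconclusive = flat fit with 30 to 70% activity, or an invalid poor fit; inactive = the rest.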

In this assay the target is S. pyogenes M1 GAS streptokinase expression, plasminogen activation OD405. In words: reduced streptokinase-driven plasminogen activation (OD405), dose response, streptokinase expression inhibitor project, absorbance readout, M1 GAS (AID 2137).
As to `O=C(c1ccc(F)cc1)n1c2ccccc2c2ccccc21`, the IC50 – broadly, the concentration that gives 50% inhibition – was 6.27 µM.

In the case of `Cc1cc2oc(=O)cc(CN(C)Cc3ccccc3)c2cc1C(C)C`, the IC50 is 9.18 µM.

In the case of `Cc1ccc(C(=O)N2c3ccccc3Sc3ccccc32)cc1`, the IC50 was 46.5 µM.

For the compound `N#Cc1ccc(C(=O)n2c3ccccc3c3ccccc32)cc1`, the IC50 is 57.7 µM.

For `COc1ccc(-c2nc(-c3cccs3)c(-c3cccs3)[nH]2)cc1OC`, the IC50 was 5.93 µM.

Regarding `FC(F)(F)c1cc(-c2ccco2)nc(NCc2ccc(Cl)cc2)n1`, the IC50 is > 500 µM (inactive).

For the compound `COc1ccc(SCC(=O)N2c3ccccc3Sc3ccccc32)cc1`, the 50% inhibitory concentration (IC50) is 6.54 µM.

With `Cn1c(=O)c2c(nc(SCc3ccccc3)n2Cc2ccc(Cl)cc2)n(C)c1=O`, the IC50 was 5.9 µM.

Regarding `COc1ccc(Sc2ccc(NC(=O)c3ccccc3Cl)cc2C#N)cc1`, the IC50 is 2.27 µM.

`CC1CC(C)CN(c2ncc3c(n2)CC(c2ccccc2Cl)CC3=O)C1` (stereo not given): the IC50 was 2.26 µM.

For `COc1ccc2oc(C(=O)N3CCN(C(c4ccccc4)c4ccccc4)CC3)c(C)c2c1`, the IC50 is 24.9 µM.

On to `Cc1ccc(/C=C/c2ccc(=O)n(Cc3ccccc3Cl)n2)cc1`, for which the IC50 is 14.2 µM.

As for `COc1cccc(C(=O)n2c3ccccc3c3ccccc32)c1`, the IC50 is 13.7 µM.

For `Cc1ccc(SCC(=O)N2c3ccccc3Sc3ccccc32)cc1`, the IC50 is 7.6 µM and 5.6 µM.

Consider `Cc1ccc(C(=O)C(c2ccccc2)N2Cc3ccccc3C2=N)cc1` (stereo not given), for which the IC50 was 8.38 µM.

Take `O=C(Nc1cc(S(=O)(=O)Nc2ccc(Cl)cc2)ccc1N1CCCCC1)c1ccc(F)cc1`: the IC50 was 4 µM.

Regarding `CCOC(=O)c1c(NC(=O)c2cccs2)sc(CC)c1-c1cccs1`, the IC50 was 21.8 µM.

On to `CCCOc1ccc(-c2nc(OC)c3ccccc3n2)cc1`, for which the half-inhibitory concentration (IC50) is 4.03 µM.

Take `CCN(CC)C(=S)SCC(=O)Nc1nc(-c2ccccc2)c(-c2ccccc2)o1`: the IC50 was 20.5 µM.

With `Cc1cc(C)c2nc(-c3ccncc3)cc(C(=O)N3CCN(Cc4ccccc4Cl)CC3)c2c1`, the IC50 was 9.54 µM.

As to `O=C(c1ccc(Cl)cc1)n1c2ccccc2c2ccccc21`, the IC50 is 18.2 µM.

With `CC(=O)N(C)c1ccc(OCC(O)Cn2c3ccc(Cl)cc3c3cc(Cl)ccc32)cc1` (stereo not given), the IC50 was 4.94 µM.

For the compound `O=C(CSc1nc(-c2ccc(Cl)cc2)[nH]c(=O)n1)Nc1cccc(Cl)c1`, the IC50 was 3.54 µM.

Consider `COCc1cc(Sc2c(Cl)cccc2Cl)nc(-c2ccccc2)n1`, for which the IC50 is 7.59 µM.

`Cc1ccc(C(=O)n2c3ccccc3c3ccccc32)cc1`: the IC50 was 2.89 µM.

For `COC(=O)c1ccccc1NC(=O)c1nc(S(=O)(=O)Cc2ccccc2)ncc1Cl`, the IC50 is 3.37 µM.

As for `O=C(CSc1ccncc1)N1c2ccccc2Sc2ccccc21`, the IC50 was 83.6 µM.

Turning to `Cc1noc(C)c1CSc1nc2sc(C)c(C)c2c(=O)n1C1CCCC1`, the IC50 was 3.13 µM.

Consider `Cc1cc(C)c(NC(=O)c2oc3ccccc3c2COc2ccccc2)c(C)c1`, for which the IC50 was 98.8 µM.

For the compound `O=C(CSc1cccs1)N1c2ccccc2Sc2ccccc21`, the IC50 is 33.8 µM.

With `CC(C)(C)N/N=C1\CC(c2ccccc2)Oc2ccccc21` (stereo not given), the IC50 is 7.95 µM.

As to `C=CCn1c(SCC#N)nc2c(c1=O)C(C)(C)Cc1ccccc1-2`, the IC50 is 10.1 µM.

In the case of `Cc1cc(C(=O)OC(C(=O)Nc2cccc(C(F)(F)F)c2)c2ccccc2)c(C)o1` (stereo not given), the IC50 was 7.09 µM.

With `COc1ccc(-c2csc3ncnc(N4CCN(c5ccccc5Cl)CC4)c23)cc1`, the IC50 is 6.67 µM.

In the case of `FC(F)(F)c1cccc(-c2cc3ccccc3nc2N2CCCC2)c1`, the IC50 is 3.94 µM.

For the compound `CC(C)c1ccc(NC(=O)c2cc(S(=O)(=O)NCC3COc4ccccc4O3)ccc2F)cc1` (stereo not given), the IC50 was 3.65 µM.

In the case of `FC(F)(F)c1nc(N2CCN(c3ccccc3)CC2)nc2c1CCCCC2`, the IC50 was 1.73 µM.

In the case of `O=C(NC(=S)Nc1ccccc1N1CCCC1)c1ccccc1Br`, the IC50 was 23.6 µM.

Turning to `CCCCn1c(=O)c(C(=O)NCc2ccccc2)c(O)c2ccccc21`, the IC50 was > 500 µM (inactive).

Consider `COc1ccc(Nc2ncnc3scc(-c4ccc(OC)cc4)c23)cc1`, for which the concentration for half-maximal inhibition (IC50) is 5.7 µM.

Consider `O=C(c1ccc(OC(F)(F)F)cc1)n1c2ccccc2c2ccccc21`, for which the IC50 was 6.36 µM.

Turning to `CC1CCN(C(=O)N2c3ccccc3Sc3ccccc32)CC1`, the IC50 was 15 µM.

In the case of `O=C(CSc1ccccc1)N1c2ccccc2Sc2ccccc21`, the IC50 is 9.11 µM.

In the case of `O=C(c1ccccc1C(F)(F)F)n1c2ccccc2c2ccccc21`, the IC50 was 6.62 µM.

On to `O=C(CSc1ccc(Cl)cc1)N1c2ccccc2Sc2ccccc21`, for which the IC50 is 3.1 µM.

Consider `CN(C)c1ccc(C(=O)n2c3ccccc3c3ccccc32)cc1`, for which the IC50 was 4.09 µM.

Regarding `Clc1cccc(Cl)c1CSc1nnc(/C=C/c2ccccc2)o1`, the IC50 is 4.39 µM.

Turning to `CCC1CCCCN1S(=O)(=O)c1ccc(NC(=O)c2nc(S(C)(=O)=O)ncc2Cl)cc1` (stereo not given), the IC50 is 1.17 µM.

Regarding `CC[C@@H](C)[C@H](NC(=O)OC(C)(C)C)c1nnc(S(=O)(=O)Cc2cc(C)ccc2C)o1`, the half-maximal inhibitory concentration (IC50) is 4.15 µM.

In the case of `CN1C(=O)/C(=C\c2cccn2-c2ccc3ccccc3c2)C(=O)NC1=S`, the IC50 is 5.42 µM.
